What was measured:
Experiment in all cases: KINOMEscan (ScanMAX) kinase profiling
Format in all cases: binding
panel of 468 kinases [1] = biological target: T1, panel of 468 kinases (Homo sapiens, UniProt P51617); details: IRAK1; 1 μM; read-out: % control
T1 construct: purchased KINOMEscan (ScanMAX) service

panel of 468 kinases [2] = biological target: T2, panel of 468 kinases (Homo sapiens, UniProt Q6DT37); details: DMPK2; 1 μM; read-out: % control
T2 construct: purchased KINOMEscan (ScanMAX) service

panel of 468 kinases [3] = biological target: T3, panel of 468 kinases (Homo sapiens, UniProt O75716); details: STK16; 1 μM; read-out: % control
T3 construct: purchased KINOMEscan (ScanMAX) service

panel of 468 kinases [4] = biological target: T4, panel of 468 kinases (Homo sapiens, UniProt Q13555); details: CAMK2G; 1 μM; read-out: % control
T4 construct: purchased KINOMEscan (ScanMAX) service

panel of 468 kinases [5] = biological target: T5, panel of 468 kinases (Homo sapiens, UniProt P36888, K663Q); details: FLT3(K663Q); 1 μM; read-out: % control
T5 construct: purchased KINOMEscan (ScanMAX) service
T5 sequence (P36888 27-993 K663Q): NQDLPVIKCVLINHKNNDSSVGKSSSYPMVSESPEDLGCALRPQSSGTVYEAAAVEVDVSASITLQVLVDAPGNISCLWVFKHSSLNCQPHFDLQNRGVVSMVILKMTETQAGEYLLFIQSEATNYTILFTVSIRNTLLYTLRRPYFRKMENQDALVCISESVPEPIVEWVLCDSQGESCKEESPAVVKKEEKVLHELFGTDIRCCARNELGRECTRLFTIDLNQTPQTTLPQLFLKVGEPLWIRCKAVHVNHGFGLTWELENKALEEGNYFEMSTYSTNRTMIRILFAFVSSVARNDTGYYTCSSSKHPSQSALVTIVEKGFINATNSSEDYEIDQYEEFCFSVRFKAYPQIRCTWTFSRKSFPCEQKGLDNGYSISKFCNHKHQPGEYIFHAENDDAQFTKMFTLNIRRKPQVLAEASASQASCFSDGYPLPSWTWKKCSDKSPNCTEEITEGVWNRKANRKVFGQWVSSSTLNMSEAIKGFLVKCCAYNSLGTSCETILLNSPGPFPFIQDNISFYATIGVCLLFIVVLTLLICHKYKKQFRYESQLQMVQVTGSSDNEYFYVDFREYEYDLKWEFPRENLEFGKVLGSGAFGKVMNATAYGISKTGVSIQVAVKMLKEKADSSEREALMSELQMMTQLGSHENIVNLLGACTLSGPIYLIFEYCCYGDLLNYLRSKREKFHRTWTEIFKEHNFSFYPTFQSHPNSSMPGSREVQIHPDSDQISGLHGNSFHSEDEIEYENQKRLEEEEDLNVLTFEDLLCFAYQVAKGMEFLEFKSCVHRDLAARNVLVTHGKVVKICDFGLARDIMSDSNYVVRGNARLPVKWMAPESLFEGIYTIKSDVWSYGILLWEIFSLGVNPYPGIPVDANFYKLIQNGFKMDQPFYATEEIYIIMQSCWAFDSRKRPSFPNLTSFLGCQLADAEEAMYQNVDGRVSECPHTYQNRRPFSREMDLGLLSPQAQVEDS

panel of 468 kinases [6] = biological target: T6, panel of 468 kinases (Homo sapiens, UniProt O14976); details: GAK; 1 μM; read-out: % control
T6 construct: purchased KINOMEscan (ScanMAX) service
T6 sequence (O14976 1-1311): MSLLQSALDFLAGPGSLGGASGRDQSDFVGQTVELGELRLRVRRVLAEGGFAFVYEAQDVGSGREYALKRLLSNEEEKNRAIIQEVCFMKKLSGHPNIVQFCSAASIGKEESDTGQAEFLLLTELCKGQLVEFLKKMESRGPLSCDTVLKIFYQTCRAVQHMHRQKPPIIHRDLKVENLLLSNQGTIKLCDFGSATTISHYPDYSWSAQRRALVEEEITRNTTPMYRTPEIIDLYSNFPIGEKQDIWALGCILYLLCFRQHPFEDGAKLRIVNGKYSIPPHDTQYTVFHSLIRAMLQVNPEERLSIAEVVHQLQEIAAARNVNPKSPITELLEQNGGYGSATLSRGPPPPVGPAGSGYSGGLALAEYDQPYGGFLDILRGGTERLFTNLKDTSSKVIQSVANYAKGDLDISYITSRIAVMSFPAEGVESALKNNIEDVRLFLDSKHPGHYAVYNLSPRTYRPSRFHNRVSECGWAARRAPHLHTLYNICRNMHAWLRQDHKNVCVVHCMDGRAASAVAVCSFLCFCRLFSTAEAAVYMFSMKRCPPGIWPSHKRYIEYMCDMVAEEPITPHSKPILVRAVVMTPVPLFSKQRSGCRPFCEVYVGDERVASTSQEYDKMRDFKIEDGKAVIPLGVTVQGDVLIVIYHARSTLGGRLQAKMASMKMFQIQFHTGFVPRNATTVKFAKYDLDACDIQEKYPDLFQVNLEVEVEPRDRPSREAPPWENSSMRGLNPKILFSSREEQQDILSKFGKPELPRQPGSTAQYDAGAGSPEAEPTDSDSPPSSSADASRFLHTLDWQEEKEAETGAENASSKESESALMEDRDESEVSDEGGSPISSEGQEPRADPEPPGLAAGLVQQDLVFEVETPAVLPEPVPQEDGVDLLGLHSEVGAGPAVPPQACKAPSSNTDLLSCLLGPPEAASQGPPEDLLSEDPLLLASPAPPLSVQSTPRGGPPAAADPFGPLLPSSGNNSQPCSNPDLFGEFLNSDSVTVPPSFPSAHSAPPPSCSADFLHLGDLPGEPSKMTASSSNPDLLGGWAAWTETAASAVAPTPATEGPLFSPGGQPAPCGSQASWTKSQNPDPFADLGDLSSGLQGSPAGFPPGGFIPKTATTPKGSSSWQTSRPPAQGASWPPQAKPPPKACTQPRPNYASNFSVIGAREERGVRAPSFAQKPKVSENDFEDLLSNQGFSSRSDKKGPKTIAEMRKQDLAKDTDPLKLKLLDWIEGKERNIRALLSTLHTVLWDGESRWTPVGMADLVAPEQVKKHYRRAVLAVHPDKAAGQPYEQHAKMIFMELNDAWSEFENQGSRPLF

panel of 468 kinases [7] = biological target: T7, panel of 468 kinases (Homo sapiens, UniProt P22607, G697C); details: FGFR3(G697C); 1 μM; read-out: % control
T7 construct: purchased KINOMEscan (ScanMAX) service
T7 sequence (P22607 23-806 G697C): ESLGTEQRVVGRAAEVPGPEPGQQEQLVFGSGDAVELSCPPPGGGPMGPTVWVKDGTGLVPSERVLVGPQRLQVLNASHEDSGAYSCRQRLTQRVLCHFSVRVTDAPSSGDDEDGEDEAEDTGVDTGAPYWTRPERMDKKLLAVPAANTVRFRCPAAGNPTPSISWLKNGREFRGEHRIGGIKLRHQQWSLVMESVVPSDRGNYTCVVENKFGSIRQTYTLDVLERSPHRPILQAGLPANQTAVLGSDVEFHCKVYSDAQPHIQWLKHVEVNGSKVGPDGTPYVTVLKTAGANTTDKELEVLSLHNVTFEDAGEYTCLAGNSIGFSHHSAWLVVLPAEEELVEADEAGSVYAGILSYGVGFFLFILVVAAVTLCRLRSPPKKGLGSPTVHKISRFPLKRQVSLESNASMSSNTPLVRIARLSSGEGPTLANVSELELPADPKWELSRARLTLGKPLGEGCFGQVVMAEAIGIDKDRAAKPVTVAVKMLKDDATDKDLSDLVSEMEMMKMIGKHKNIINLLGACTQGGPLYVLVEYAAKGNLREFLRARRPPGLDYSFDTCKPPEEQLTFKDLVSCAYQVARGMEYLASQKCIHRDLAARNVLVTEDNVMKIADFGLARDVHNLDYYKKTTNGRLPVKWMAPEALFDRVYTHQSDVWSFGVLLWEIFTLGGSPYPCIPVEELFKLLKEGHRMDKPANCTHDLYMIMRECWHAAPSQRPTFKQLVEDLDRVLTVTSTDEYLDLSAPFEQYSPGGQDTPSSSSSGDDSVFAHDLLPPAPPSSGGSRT

T2 sequence (Q6DT37 whole entry): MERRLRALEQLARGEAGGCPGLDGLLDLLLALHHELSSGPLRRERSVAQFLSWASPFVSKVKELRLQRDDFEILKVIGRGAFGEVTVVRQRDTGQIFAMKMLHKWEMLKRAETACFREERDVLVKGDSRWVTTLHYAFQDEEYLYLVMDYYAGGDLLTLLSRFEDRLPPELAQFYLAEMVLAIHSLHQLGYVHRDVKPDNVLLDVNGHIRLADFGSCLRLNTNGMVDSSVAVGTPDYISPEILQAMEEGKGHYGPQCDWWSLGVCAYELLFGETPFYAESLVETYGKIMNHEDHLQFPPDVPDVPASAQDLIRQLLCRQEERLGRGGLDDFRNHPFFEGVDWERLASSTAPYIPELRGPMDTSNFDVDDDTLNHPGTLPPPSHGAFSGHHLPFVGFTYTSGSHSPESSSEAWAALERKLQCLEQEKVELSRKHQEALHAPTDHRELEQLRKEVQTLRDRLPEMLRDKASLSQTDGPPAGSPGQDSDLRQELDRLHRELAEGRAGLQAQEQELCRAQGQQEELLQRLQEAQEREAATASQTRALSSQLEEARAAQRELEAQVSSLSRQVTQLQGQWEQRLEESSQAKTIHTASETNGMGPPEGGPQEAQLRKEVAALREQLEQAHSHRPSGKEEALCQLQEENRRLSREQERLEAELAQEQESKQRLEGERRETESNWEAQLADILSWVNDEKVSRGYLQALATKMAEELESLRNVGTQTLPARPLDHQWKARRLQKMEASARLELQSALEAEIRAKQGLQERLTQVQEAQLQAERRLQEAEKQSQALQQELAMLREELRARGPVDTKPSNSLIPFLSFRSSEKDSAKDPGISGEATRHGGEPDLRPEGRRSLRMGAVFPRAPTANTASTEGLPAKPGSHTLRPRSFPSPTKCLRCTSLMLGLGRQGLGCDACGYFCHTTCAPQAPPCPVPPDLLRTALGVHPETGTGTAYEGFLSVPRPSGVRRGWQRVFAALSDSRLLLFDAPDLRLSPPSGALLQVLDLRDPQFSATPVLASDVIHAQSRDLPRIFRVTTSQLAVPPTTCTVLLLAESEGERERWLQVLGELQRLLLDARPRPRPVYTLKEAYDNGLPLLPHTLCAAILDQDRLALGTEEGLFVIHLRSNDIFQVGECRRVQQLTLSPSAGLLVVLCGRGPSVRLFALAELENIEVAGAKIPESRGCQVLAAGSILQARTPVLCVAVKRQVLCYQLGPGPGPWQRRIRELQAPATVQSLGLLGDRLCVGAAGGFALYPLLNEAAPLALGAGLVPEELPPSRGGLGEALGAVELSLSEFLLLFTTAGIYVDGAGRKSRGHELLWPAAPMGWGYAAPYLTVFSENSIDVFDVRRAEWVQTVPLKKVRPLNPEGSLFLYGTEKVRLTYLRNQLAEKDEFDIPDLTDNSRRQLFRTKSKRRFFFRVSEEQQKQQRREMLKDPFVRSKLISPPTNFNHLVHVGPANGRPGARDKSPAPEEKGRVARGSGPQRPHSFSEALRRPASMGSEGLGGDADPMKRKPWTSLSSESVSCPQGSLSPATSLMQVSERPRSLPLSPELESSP
T3 sequence (O75716 whole entry): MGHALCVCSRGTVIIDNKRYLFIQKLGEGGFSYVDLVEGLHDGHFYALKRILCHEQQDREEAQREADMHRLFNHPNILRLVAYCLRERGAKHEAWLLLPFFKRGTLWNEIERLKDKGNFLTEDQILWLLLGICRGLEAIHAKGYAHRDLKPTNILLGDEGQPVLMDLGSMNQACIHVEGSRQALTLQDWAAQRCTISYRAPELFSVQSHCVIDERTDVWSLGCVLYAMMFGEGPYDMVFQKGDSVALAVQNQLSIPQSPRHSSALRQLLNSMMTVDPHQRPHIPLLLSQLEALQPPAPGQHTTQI
T1 sequence (P51617 whole entry): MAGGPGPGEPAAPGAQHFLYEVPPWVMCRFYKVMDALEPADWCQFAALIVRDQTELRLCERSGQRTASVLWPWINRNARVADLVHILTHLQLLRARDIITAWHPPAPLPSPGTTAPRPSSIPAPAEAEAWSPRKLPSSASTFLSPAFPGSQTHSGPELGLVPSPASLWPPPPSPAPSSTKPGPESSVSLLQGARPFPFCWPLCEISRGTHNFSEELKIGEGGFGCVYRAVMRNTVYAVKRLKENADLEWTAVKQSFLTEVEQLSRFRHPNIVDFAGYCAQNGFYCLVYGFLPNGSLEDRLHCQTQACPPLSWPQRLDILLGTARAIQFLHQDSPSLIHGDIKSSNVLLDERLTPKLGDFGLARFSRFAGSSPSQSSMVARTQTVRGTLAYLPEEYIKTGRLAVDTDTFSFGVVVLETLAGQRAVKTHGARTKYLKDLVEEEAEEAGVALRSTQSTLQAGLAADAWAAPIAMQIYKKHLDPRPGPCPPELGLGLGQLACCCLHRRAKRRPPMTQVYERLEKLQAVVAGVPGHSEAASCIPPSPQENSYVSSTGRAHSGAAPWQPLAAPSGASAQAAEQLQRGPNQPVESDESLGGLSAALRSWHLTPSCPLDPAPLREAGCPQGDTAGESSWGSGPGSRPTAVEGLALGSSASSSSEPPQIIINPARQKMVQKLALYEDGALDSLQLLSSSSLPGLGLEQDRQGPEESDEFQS
T4 sequence (Q13555 whole entry): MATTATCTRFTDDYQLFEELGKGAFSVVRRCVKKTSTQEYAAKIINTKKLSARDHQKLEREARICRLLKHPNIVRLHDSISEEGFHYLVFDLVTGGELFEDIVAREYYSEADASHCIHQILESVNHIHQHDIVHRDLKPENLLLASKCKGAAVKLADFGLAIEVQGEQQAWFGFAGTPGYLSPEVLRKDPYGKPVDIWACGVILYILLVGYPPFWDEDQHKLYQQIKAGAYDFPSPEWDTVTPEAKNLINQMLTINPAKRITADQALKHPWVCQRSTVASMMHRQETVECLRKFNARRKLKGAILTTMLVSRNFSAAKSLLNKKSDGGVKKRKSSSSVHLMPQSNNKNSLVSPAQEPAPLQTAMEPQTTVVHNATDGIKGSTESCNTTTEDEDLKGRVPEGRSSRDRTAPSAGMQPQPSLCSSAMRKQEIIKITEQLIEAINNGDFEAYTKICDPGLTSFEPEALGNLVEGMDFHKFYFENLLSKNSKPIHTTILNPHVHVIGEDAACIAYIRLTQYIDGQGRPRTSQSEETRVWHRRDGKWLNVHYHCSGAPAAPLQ

CNc1nc(Nc2ccc(S(=O)(=O)N3CCC(N4CCOCC4)CC3)cc2OC)nc2[nH]cc(Cl)c12 [Compound 12, 5-chloro-N2-(2-methoxy-4-((4-morpholinopiperidin-1-yl)sulfonyl)phenyl)-N4-methyl-7H-pyrrolo[2,3-d]pyrimidine-2,4-diamine]
remaining binding at 1 µM (panel of 468 kinases [1]): 92% | remaining binding at 1 µM (panel of 468 kinases [2]): 100% | remaining binding at 1 µM (panel of 468 kinases [3]): 100% | remaining binding at 1 µM (panel of 468 kinases [4]): 100% | remaining binding at 1 µM (panel of 468 kinases [5]): 100% | remaining binding at 1 µM (panel of 468 kinases [6]): 3.8% | remaining binding at 1 µM (panel of 468 kinases [7]): 100%

CNc1nc(Nc2ccc(P3(=O)CCN(C4CCOCC4)CC3)cc2OC)nc2[nH]cc(Cl)c12 [Compound 77, 4-(4-((5-chloro-4-(methylamino)-7H-pyrrolo[2,3-d]pyrimidin-2-yl)amino)-3-methoxyphenyl)-1-(tetrahydro-2H-pyran-4-yl)-1,4-azaphosphinane 4-oxide]
remaining binding at 1 µM (panel of 468 kinases [1]): 88% | remaining binding at 1 µM (panel of 468 kinases [2]): 94% | remaining binding at 1 µM (panel of 468 kinases [3]): 93% | remaining binding at 1 µM (panel of 468 kinases [4]): 97% | remaining binding at 1 µM (panel of 468 kinases [5]): 99% | remaining binding at 1 µM (panel of 468 kinases [6]): 0.9% | remaining binding at 1 µM (panel of 468 kinases [7]): 100%

CNc1nc(Nc2ccc(C(=O)N3CCC(N4CCOCC4)CC3)c3c2OCO3)nc2[nH]cc(Cl)c12 [Compound 75, (7-((5-chloro-4-(methylamino)-7H-pyrrolo[2,3-d]pyrimidin-2-yl)amino)benzo[d][1,3]dioxol-4-yl)(4-morpholinopiperidin-1-yl)methanone]
remaining binding at 1 µM (panel of 468 kinases [1]): 51% | remaining binding at 1 µM (panel of 468 kinases [2]): 100% | remaining binding at 1 µM (panel of 468 kinases [3]): 71% | remaining binding at 1 µM (panel of 468 kinases [4]): 100% | remaining binding at 1 µM (panel of 468 kinases [5]): 72% | remaining binding at 1 µM (panel of 468 kinases [6]): 0.55% | remaining binding at 1 µM (panel of 468 kinases [7]): 100%
